According to article PMC12073402, “A Selective MAP3K1 Inhibitor Facilitates Discovery of NPM1 as a Member of the Network” (Molecules, 2025):

Key:
Test in all cases: KiNativ kinome profiling in PANC-1 lysate
Assay type in all cases: binding
BRAF, BRAF V600E = target: T1, BRAF, BRAF V600E (Homo sapiens, UniProt P15056); conditions: Lys2
T1 construct: endogenous in cells; host or cells: PANC-1 cell lysate
Summary of the method: (§1)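 PANC-1 lysates were incubated with 5 μM inhibitor or DMSO, then labeled with a desthiobiotin-ATP acyl-phosphate probe that biotinylates conserved kinase lysines. Tryptic peptides were streptavidin-enriched and quantified by LC-MS/MS, reported as % change in MS signal from duplicate treated and duplicate control samples.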

ZAK = target: T2, ZAK (Homo sapiens, UniProt Q9NYL2); conditions: Lys1
T2 construct: endogenous in cells; host or cells: PANC-1 cell lysate
Summary of the method: as §1

MAP3K1 = target: T3, MAP3K1 (Homo sapiens, UniProt Q13233)
T3 construct: endogenous in cells; host or cells: PANC-1 cell lysate
Summary of the method: as §1

GCK = target: T4, GCK (Homo sapiens, UniProt Q12851)
T4 construct: we opted to conduct a kinome screen (KiNativ) in PANC-1 cell lysates; endogenous in cells; host or cells: PANC-1 cell lysate
Summary of the method: as §1

MST3 = target: T5, MST3 (Homo sapiens, UniProt Q9Y6E0); conditions: Lys2
T5 construct: endogenous in cells; host or cells: PANC-1
Summary of the method: as §1

[1] = tested on: ZC1/HGK, ZC2/TNIK, ZC3/MINK; conditions: 5 µM; Lys2; DIKGQNVLLTENAEVK
Summary of the method: as §1

NEK1 = target: T6, NEK1 (Homo sapiens, UniProt Q96PY6)
T6 construct: endogenous in cells; host or cells: PANC-1 cell lysate
Summary of the method: as §1

p70S6K = target: T7, p70S6K (Homo sapiens, UniProt P23443); conditions: Lys2
T7 construct: endogenous in cells; host or cells: PANC-1 cell lysate
Summary of the method: as §1

CHED = target: T8, CHED (Homo sapiens, UniProt Q14004); conditions: Lys2
T8 construct: endogenous in cells; host or cells: PANC-1 cell lysate
Summary of the method: as §1

PEK = target: T9, PEK (Homo sapiens, UniProt Q9NZJ5); conditions: Lys2
T9 construct: endogenous in cells; host or cells: PANC-1 cell lysate
Summary of the method: as §1

IKKe, TBK1 = conditions: 5 µM; Lys2; DIKPGNIMR
Summary of the method: as §1

NEK6, NEK7 = conditions: 5 µM; Lys2; DIKPANVFITATGVVK
Summary of the method: as §1

CLK1 = target: T10, CLK1 (Homo sapiens, UniProt P49759); conditions: Lys2
T10 construct: endogenous in cells; host or cells: PANC-1 cell lysate
Summary of the method: as §1

NEK9 = target: T11, NEK9 (Homo sapiens, UniProt Q8TD19)
T11 construct: endogenous in cells; host or cells: PANC-1 cell lysate
T11 sequence (Q8TD19 1-979): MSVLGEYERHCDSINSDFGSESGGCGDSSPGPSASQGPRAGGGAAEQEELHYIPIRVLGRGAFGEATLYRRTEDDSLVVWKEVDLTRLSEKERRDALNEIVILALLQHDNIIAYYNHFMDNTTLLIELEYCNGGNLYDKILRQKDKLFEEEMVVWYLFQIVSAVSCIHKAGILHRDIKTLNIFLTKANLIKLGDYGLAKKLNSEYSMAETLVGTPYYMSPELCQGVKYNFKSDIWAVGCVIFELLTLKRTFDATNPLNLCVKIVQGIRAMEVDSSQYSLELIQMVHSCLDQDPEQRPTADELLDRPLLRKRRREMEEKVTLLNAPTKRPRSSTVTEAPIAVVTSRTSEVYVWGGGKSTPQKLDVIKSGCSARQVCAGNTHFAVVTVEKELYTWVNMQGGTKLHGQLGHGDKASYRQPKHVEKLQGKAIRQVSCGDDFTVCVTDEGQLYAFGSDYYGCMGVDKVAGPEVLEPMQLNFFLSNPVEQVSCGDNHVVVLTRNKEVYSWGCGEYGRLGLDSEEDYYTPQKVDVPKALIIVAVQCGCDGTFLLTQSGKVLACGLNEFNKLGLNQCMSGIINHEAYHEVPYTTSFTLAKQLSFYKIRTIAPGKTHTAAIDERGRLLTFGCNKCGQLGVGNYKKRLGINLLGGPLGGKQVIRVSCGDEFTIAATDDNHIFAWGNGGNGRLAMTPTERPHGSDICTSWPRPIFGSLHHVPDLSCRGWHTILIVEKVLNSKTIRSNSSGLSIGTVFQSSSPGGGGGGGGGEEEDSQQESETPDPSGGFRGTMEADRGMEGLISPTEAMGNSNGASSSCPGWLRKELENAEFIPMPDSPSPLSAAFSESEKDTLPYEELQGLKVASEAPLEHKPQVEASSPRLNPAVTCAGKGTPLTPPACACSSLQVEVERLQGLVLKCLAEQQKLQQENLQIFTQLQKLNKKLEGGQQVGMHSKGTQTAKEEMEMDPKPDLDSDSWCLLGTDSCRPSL
Summary of the method: as §1

RSK1 domain1 = target: T12, RSK1 domain1 (Homo sapiens, UniProt Q15418); conditions: ATP Loop
T12 construct: endogenous in cells; host or cells: PANC-1 cell lysate
Summary of the method: as §1

T3 sequence (Q13233 whole entry): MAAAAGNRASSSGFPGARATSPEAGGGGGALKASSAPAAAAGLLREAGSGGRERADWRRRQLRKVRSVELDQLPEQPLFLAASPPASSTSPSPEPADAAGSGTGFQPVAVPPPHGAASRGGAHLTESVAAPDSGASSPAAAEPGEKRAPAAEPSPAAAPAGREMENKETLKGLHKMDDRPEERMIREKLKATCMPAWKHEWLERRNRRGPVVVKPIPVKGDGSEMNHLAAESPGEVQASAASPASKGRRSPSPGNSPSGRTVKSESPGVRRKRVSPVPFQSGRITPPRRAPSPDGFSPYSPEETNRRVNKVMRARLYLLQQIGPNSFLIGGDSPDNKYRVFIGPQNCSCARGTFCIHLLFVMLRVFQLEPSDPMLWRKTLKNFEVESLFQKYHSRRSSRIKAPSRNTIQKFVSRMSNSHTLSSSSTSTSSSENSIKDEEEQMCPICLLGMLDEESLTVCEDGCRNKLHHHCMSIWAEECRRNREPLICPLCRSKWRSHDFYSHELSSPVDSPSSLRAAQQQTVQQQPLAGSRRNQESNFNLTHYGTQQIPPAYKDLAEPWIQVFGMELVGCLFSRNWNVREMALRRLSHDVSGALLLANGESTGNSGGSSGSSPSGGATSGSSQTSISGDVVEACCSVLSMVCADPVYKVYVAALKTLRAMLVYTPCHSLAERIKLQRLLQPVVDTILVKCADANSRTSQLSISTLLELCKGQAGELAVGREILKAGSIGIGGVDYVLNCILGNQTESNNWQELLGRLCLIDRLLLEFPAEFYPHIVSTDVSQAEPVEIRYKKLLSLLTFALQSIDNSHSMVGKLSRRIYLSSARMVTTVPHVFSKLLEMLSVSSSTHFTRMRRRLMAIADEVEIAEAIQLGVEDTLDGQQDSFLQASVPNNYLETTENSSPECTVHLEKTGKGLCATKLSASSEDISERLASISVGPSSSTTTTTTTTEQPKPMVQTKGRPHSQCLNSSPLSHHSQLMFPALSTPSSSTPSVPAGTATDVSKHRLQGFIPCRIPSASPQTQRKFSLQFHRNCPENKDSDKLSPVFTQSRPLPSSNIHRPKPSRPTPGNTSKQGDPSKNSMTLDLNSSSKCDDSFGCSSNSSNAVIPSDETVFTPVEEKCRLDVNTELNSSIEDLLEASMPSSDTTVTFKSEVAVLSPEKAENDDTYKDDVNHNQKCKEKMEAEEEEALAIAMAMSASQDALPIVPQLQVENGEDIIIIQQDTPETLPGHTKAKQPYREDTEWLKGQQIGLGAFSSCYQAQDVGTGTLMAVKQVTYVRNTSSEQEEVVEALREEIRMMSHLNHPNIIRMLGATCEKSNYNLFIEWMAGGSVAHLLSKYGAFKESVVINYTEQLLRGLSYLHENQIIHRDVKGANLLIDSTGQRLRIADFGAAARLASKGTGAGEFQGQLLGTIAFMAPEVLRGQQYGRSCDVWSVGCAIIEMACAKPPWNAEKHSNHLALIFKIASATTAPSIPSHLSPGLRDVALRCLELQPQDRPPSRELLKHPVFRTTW
T6 sequence (Q96PY6 whole entry): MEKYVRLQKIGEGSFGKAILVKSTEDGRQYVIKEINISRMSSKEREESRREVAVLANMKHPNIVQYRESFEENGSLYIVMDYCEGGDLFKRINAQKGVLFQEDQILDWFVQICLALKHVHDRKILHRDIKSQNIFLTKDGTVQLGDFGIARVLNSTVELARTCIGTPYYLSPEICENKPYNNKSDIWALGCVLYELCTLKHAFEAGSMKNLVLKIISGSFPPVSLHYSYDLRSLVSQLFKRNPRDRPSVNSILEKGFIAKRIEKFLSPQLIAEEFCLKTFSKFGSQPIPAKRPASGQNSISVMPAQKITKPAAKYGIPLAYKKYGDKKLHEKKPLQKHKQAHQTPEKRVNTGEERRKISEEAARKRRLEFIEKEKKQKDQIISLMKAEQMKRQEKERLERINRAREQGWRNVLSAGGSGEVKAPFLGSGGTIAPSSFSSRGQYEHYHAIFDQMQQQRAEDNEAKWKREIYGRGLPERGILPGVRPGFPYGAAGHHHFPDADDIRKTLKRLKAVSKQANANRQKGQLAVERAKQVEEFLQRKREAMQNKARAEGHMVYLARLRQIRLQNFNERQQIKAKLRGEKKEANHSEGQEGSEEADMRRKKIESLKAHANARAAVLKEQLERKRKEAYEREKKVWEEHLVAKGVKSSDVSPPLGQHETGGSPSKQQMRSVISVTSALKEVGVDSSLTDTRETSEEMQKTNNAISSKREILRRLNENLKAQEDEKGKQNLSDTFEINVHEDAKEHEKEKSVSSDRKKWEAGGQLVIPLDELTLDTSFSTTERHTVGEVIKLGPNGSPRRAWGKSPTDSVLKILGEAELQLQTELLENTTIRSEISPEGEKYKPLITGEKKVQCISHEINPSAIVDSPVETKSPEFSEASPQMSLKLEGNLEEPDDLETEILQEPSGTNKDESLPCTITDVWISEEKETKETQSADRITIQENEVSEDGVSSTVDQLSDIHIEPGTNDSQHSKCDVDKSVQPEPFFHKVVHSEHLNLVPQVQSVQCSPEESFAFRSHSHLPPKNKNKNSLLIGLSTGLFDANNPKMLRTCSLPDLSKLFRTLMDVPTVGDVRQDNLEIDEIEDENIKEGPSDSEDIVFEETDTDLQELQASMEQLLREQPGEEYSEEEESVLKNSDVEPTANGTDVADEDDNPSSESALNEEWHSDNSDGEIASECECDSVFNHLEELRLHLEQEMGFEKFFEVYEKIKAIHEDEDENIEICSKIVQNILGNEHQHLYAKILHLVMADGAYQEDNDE
T4 sequence (Q12851 whole entry): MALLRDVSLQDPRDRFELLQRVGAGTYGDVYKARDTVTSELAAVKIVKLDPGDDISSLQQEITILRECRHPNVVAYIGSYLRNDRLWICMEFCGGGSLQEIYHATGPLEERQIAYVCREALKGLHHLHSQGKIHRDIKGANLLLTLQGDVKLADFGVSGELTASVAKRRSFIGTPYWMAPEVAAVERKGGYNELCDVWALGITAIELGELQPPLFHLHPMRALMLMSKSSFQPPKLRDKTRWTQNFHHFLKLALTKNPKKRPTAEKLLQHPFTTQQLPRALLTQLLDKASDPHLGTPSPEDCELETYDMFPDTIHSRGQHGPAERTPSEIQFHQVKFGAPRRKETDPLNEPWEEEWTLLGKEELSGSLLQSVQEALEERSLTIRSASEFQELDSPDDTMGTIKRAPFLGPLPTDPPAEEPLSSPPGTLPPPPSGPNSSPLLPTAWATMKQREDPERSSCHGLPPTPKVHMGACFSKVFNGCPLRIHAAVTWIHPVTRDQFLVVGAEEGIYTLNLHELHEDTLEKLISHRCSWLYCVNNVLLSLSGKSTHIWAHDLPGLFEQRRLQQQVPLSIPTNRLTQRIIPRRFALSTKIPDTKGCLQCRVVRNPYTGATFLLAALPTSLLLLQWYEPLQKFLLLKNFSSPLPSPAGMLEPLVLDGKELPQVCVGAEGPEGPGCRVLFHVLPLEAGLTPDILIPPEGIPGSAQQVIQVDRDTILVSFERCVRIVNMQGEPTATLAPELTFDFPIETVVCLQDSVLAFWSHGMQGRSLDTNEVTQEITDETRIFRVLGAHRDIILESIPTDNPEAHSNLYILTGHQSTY
T7 sequence (P23443 whole entry): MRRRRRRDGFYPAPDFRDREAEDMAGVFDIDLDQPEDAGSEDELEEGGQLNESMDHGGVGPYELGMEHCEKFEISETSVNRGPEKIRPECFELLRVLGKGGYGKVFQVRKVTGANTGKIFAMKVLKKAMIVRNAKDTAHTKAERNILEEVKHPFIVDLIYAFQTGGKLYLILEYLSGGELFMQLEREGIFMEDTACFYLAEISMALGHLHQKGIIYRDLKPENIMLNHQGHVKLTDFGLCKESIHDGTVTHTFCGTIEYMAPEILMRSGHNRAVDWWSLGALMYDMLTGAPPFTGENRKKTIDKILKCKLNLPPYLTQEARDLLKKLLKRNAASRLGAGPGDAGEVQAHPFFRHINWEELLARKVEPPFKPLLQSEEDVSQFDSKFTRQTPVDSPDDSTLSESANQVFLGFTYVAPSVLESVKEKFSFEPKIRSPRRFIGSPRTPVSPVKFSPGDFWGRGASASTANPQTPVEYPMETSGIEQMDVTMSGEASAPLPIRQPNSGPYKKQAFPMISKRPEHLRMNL
T1 sequence (P15056 2-766 V600E limits assumed): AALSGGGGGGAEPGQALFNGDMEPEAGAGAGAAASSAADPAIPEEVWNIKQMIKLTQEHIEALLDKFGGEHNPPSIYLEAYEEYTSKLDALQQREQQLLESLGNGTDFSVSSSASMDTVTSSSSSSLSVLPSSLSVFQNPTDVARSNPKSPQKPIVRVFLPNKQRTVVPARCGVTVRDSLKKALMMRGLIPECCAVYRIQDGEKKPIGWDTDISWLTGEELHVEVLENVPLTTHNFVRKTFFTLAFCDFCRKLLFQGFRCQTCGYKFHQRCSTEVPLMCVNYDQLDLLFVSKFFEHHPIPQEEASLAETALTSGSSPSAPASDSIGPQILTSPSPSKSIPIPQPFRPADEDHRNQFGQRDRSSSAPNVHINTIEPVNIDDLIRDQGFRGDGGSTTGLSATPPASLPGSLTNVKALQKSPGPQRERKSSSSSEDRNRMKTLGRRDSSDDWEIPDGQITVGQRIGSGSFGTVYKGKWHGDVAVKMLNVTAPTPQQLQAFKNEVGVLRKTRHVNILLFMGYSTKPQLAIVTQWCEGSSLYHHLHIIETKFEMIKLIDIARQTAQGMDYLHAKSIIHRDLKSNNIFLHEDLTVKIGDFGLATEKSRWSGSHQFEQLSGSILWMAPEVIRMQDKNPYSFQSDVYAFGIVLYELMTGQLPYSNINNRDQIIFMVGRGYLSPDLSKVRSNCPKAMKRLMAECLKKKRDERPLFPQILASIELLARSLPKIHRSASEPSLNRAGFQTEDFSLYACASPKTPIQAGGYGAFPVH

## Cn1cc(-c2cnc3ccc(NC(=O)Nc4ccc(F)c(C(F)(F)F)c4)cc3n2)cn1 [51-106, 1-(4-Fluoro-3-(trifluoromethyl)phenyl)-3-(3-(1-methyl-1H-pyrazol-4-yl)quinoxalin-6-yl)urea]
BRAF, BRAF V600E
  inhibition at 5 µM: 0.5%
ZAK
  inhibition at 5 µM: ≤ 0%
MAP3K1; 5 μM, 328 quantified kinases
  MAP3K1 inhibition compared to any other kinase in the panel: 2.5 fold
MAP3K1; 5 µM, Lys2, DVKGANLLIDSTGQR
  % Inhibition: 78%
  inhibition at 5 µM: 78.1%
GCK; Lys1, DTVTSELAAVKIVK
  inhibition at 5 µM: 18.3%
GCK; Lys2, DIKGANLLLTLQGDVK
  inhibition at 5 µM: 3.9%
MST3
  inhibition at 5 µM: 4.2%
[1]
  % Inhibition: NB (NB = No Binding (≤ 0))
NEK1; 5 µM, Lys1, QYVIKEINISR
  % Inhibition: NB (NB = No Binding (≤ 0))
NEK1; Lys2, […]
  inhibition at 5 µM: ≤ 0%
p70S6K
  inhibition at 5 µM: ≤ 0%
CHED
  inhibition at 5 µM: ≤ 0%
PEK
  inhibition at 5 µM: 10.9%
IKKe, TBK1
  % Inhibition: 10.6%
NEK6, NEK7
  % Inhibition: 24.8%
CLK1
  inhibition at 5 µM: 0.5%
NEK9; ATP Loop, LGDYGLAKK
  inhibition at 5 µM: ≤ 0%
NEK9; Lys1, RTEDDSLVVWKEVDLTR
  inhibition at 5 µM: 0.6%
NEK9; Lys2, DIKTLNIFLTK
  inhibition at 5 µM: 13.8%
RSK1 domain1
  inhibition at 5 µM: ≤ 0%
